Converted amounts (≈) assume the structure as drawn. Where two headings read alike, the source gives them in different places.
Tests used:
Type in all cases: cell-based
P. aeruginosa 27853 = assay: MIC broth microdilution, standard panel: P. aeruginosa 27853; settings: Pseudomonas aeruginosa, standard panel of organisms
Procedure: (§1) Bacterial isolates were cultivated from −70° C. frozen stocks by two consecutive overnight passages at 35° C. in ambient air on 5% blood agar (Remel, Lenexa, Kans.). Clinical isolates tested were from a collection composed of isolates collected during clinical trials and recent clinical isolates obtained from various geographically diverse hospitals in the US. Quality control and primary panel strains were from the American Type Culture Collection (ATCC; Rockville, Md.), with the exception of P. aeruginosa PAO200, a strain with a deletion of the mexABoprM genes that was received from Dr. H. Schweizer. […] Strain Z61 (ATCC 35151) is also hypersusceptible to antibacterials. It is thought that the hypersusceptibility of this strain is the result of increased permeability of its outer membrane (Angus B L et al, Antimicrobial Agents and Chemotherapy 1982 21,299-309: Outer membrane permeability in Pseudomonas aeruginosa: Comparison of a wild-type with an antibacterial-supersusceptible mutant).
(§2) Minimum Inhibitory Concentrations (MICs) were determined by the broth microdilution method in accordance with the National Committee for Clinical Laboratory Standards (NCCLS) guidelines. In brief, organism suspensions were are adjusted to a 0.5 McFarland standard to yield a final inoculum between 3×10^5 and 7×10^5 colony-forming units (CFU)/mL. Drug dilutions and inocula were made in sterile, cation adjusted Mueller-Hinton Broth (Remel). An inoculum volume of 100 μl was added to wells containing 100 μl of broth with 2-fold serial dilutions of drug. All inoculated microdilution trays were incubated in ambient air at 35° C. for 18-24 hours. Following incubation, the lowest concentration of the drug that prevented visible growth was recorded as the MIC. Performance of the assay was monitored by the use of laboratory quality-control strains against tobramycin, that has a defined MIC spectrum, in accordance with NCCLS guidelines.

E. coli 25922 = assay: MIC broth microdilution, standard panel: E. coli 25922; settings: Escherichia coli, standard panel of organisms
Procedure: as §1, §2

S. aureus 29213 = assay: MIC broth microdilution, standard panel: S. aureus 29213; settings: Staphylococcus aureus, standard panel of organisms
Procedure: as §1, §2

[1] = system: P. aeruginosa PAO200 mexAB; assay: MIC broth microdilution, standard panel: P. aeruginosa PAO200 mexAB; settings: Pseudomonas aeruginosa, PAO200MEXAB, read-out: MIC P. aeruginosa PAO200 mexAB
Procedure: as §1, §2

[2] = system: Pseudomonas aeruginosa cystic fibrosis isolate 3198; assay: MIC vs cystic fibrosis isolate of P. aeruginosa 3198 (sensitive to most antibacterials); settings: strain 3198, Sensitive
Procedure: (§3) Bacterial isolates were cultivated from −70° C. frozen stocks by two consecutive overnight passages at 35° C. in ambient air on 5% blood agar (Remel, Lenexa, Kans.). Clinical isolates tested were from a collection composed of isolates collected during clinical trials and recent clinical isolates obtained from various geographically diverse hospitals in the US. Quality control and primary panel strains were from the American Type Culture Collection (ATCC; Rockville, Md.), with the exception of P. aeruginosa PAO200, a strain with a deletion of the mexABoprM genes that was received from Dr. H. Schweizer.
as §2, with “MIC.” for “MIC. Performance of the assay was monitored by the use of laboratory quality-control strains against tobramycin, that has a defined MIC spectrum, in accordance with NCCLS guidelines.”

[3] = system: Pseudomonas aeruginosa cystic fibrosis isolate 3236; assay: MIC vs cystic fibrosis isolate of P. aeruginosa 3236 (sensitive to most antibacterials); settings: strain 3236, Sensitive
Procedure: as §3
as §2, with “MIC.” for “MIC. Performance of the assay was monitored by the use of laboratory quality-control strains against tobramycin, that has a defined MIC spectrum, in accordance with NCCLS guidelines.”

[4] = system: Pseudomonas aeruginosa cystic fibrosis isolate 2196; assay: MIC vs cystic fibrosis isolate of P. aeruginosa 2196 (resistant to ciprofloxacin); settings: strain 2196, Cipro R
Procedure: as §3
as §2, with “MIC.” for “MIC. Performance of the assay was monitored by the use of laboratory quality-control strains against tobramycin, that has a defined MIC spectrum, in accordance with NCCLS guidelines.”

[5] = system: Pseudomonas aeruginosa cystic fibrosis isolate 3224; assay: MIC vs cystic fibrosis isolate of P. aeruginosa 3224; settings: strain 3224, Tobra R
Procedure: as §3
as §2, with “MIC.” for “MIC. Performance of the assay was monitored by the use of laboratory quality-control strains against tobramycin, that has a defined MIC spectrum, in accordance with NCCLS guidelines.”

[6] = system: Pseudomonas aeruginosa cystic fibrosis isolate 3317; assay: MIC vs cystic fibrosis isolate of P. aeruginosa 3317 (resistant to aztreonam); settings: strain 3317, Aztr. R
Procedure: as §3
as §2, with “MIC.” for “MIC. Performance of the assay was monitored by the use of laboratory quality-control strains against tobramycin, that has a defined MIC spectrum, in accordance with NCCLS guidelines.”

[7] = system: Pseudomonas aeruginosa cystic fibrosis isolate 1145; assay: microbe, parasite or virus in culture; settings: strain 1145, MDR, read-out: MIC
Procedure: as §3
as §2, with “MIC.” for “MIC. Performance of the assay was monitored by the use of laboratory quality-control strains against tobramycin, that has a defined MIC spectrum, in accordance with NCCLS guidelines.”

[8] = system: Pseudomonas aeruginosa cystic fibrosis isolate 3206; assay: microbe, parasite or virus in culture; settings: strain 3206, MDR, read-out: MIC
Procedure: as §3
as §2, with “MIC.” for “MIC. Performance of the assay was monitored by the use of laboratory quality-control strains against tobramycin, that has a defined MIC spectrum, in accordance with NCCLS guidelines.”

[9] = system: non-CF clinical isolates of P. aeruginosa; assay: MIC vs non-CF clinical isolates of P. aeruginosa; settings: Pseudomonas aeruginosa
Procedure: as §1, §2

[10] = system: Acinetobacter calcoaceticus; assay: MIC vs non-fermenting organisms: Acinetobacter calcoaceticus; settings: Acinet. calc.
Procedure: as §3
as §2, with “MIC.” for “MIC. Performance of the assay was monitored by the use of laboratory quality-control strains against tobramycin, that has a defined MIC spectrum, in accordance with NCCLS guidelines.”

Alcaligenes xylosoxidans = assay: MIC vs non-fermenting organisms: Alcaligenes xylosoxidans; settings: Achromobacter xylosoxidans, Alcal. xyl
Procedure: as §3
as §2, with “MIC.” for “MIC. Performance of the assay was monitored by the use of laboratory quality-control strains against tobramycin, that has a defined MIC spectrum, in accordance with NCCLS guidelines.”

Burkholderia cepacia = assay: MIC vs non-fermenting organisms: Burkholderia cepacia; settings: B. cepacia
Procedure: as §3
as §2, with “MIC.” for “MIC. Performance of the assay was monitored by the use of laboratory quality-control strains against tobramycin, that has a defined MIC spectrum, in accordance with NCCLS guidelines.”

[11] = system: Stenotrophomonas maltophilia; assay: MIC vs non-fermenting organisms: Stenotrophomonas maltophilia; settings: Stenotrophomonas maltophilia, S. malt.; MIC key class; read-out: MIC
Procedure: as §3
as §2, with “MIC.” for “MIC. Performance of the assay was monitored by the use of laboratory quality-control strains against tobramycin, that has a defined MIC spectrum, in accordance with NCCLS guidelines.”

Enterobacter aerogenes = assay: MIC vs enteric organisms: Enterobacter aerogenes; settings: Klebsiella aerogenes; E. aer.; MIC key class
Procedure: as §3
as §2, with “MIC.” for “MIC. Performance of the assay was monitored by the use of laboratory quality-control strains against tobramycin, that has a defined MIC spectrum, in accordance with NCCLS guidelines.”

Enterobacter cloacae = assay: MIC vs enteric organisms: Enterobacter cloacae; settings: E. clo.
Procedure: as §3
as §2, with “MIC.” for “MIC. Performance of the assay was monitored by the use of laboratory quality-control strains against tobramycin, that has a defined MIC spectrum, in accordance with NCCLS guidelines.”

Escherichia coli = assay: MIC vs enteric organisms: Escherichia coli clinical isolates; settings: Escherichia coli, read-out: MIC
Procedure: as §3
as §2, with “MIC.” for “MIC. Performance of the assay was monitored by the use of laboratory quality-control strains against tobramycin, that has a defined MIC spectrum, in accordance with NCCLS guidelines.”

Klebsiella pneumoniae = assay: MIC vs enteric organisms: Klebsiella pneumoniae; settings: K. pneu.
Procedure: as §3
as §2, with “MIC.” for “MIC. Performance of the assay was monitored by the use of laboratory quality-control strains against tobramycin, that has a defined MIC spectrum, in accordance with NCCLS guidelines.”

Klebsiella oxytoca = assay: MIC vs enteric organisms: Klebsiella oxytoca; settings: K. oxy.
Procedure: as §3
as §2, with “MIC.” for “MIC. Performance of the assay was monitored by the use of laboratory quality-control strains against tobramycin, that has a defined MIC spectrum, in accordance with NCCLS guidelines.”

Proteus mirabilis = assay: MIC vs enteric organisms: Proteus mirabilis; settings: P. mir.
Procedure: as §3
as §2, with “MIC.” for “MIC. Performance of the assay was monitored by the use of laboratory quality-control strains against tobramycin, that has a defined MIC spectrum, in accordance with NCCLS guidelines.”

Serratia marcescens = assay: MIC vs enteric organisms: Serratia marcescens; settings: S. marc.
Procedure: as §3
as §2, with “MIC.” for “MIC. Performance of the assay was monitored by the use of laboratory quality-control strains against tobramycin, that has a defined MIC spectrum, in accordance with NCCLS guidelines.”

[12] = system: Pseudomonas aeruginosa cystic fibrosis isolate 3232; assay: MIC vs cystic fibrosis isolate of P. aeruginosa 3232 (Ceftaz. R); settings: strain 3232, Ceftaz. R

NC[C@H](NC(=O)c1ccc(C#Cc2ccccc2)cc1)C(=O)NO [Example 366, N-[(1S)-1-(aminomethyl)-2-(hydroxyamino)-2-oxoethyl]-4-(phenylethynyl)benzamide]
MIC (P. aeruginosa 27853): < 6.25 µg/mL
MIC (E. coli 25922): < 6.25 µg/mL
MIC (S. aureus 29213): > 50 µg/mL
MIC [1]: < 6.25 µg/mL
MIC ([2]; LpxC inhibitors, MIC key class): < 6.25 µg/mL
MIC ([3]; LpxC inhibitors, MIC key class): < 6.25 µg/mL
MIC ([4]; LpxC inhibitors, MIC key class): < 6.25 µg/mL
MIC ([5]; LpxC inhibitors, MIC key class): < 6.25 µg/mL
MIC ([6]; LpxC inhibitors, MIC key class): < 6.25 µg/mL
MIC ([7]; LpxC inhibitors, MIC key class): < 6.25 µg/mL
MIC ([8]; LpxC inhibitors, MIC key class): < 6.25 µg/mL
MIC ([9]; P. aer 12307, MIC key class): < 6.25 µg/mL
MIC ([9]; P. aer 27853, MIC key class): < 6.25 µg/mL
MIC ([9]; P. aer psa-6b, MIC key class): 6.25 to 50 µg/mL (≈ 19.3 to 155 µM)
MIC ([9]; PAO1, P. aer. PAO1, MIC key class): < 6.25 µg/mL
MIC ([10]; MIC key class): > 50 µg/mL
MIC (Alcaligenes xylosoxidans; MIC key class): < 6.25 µg/mL
MIC (Burkholderia cepacia; Burkholderia cepacia, MIC key class, read-out: MIC): 6.25 to 50 µg/mL (≈ 19.3 to 155 µM)
MIC [11]: 6.25 to 50 µg/mL (≈ 19.3 to 155 µM)
MIC (Enterobacter aerogenes): > 50 µg/mL
MIC (Enterobacter cloacae; MIC key class): < 6.25 µg/mL
MIC (Escherichia coli; E. coli 1619, MIC key class): < 6.25 µg/mL
MIC (Escherichia coli; E. coli 2788, MIC key class): < 6.25 µg/mL
MIC (Klebsiella pneumoniae; MIC key class): 6.25 to 50 µg/mL (≈ 19.3 to 155 µM)
MIC (Klebsiella oxytoca; MIC key class): 6.25 to 50 µg/mL (≈ 19.3 to 155 µM)
MIC (Proteus mirabilis; MIC key class): < 6.25 µg/mL
MIC (Serratia marcescens; MIC key class): < 6.25 µg/mL
MIC ([12]; LpxC inhibitors, MIC key class): < 6.25 µg/mL

CO/N=C(\C(=O)N[C@@H]1C(=O)N2C(C(=O)[O-])=C(C[N+]3(C)CCCC3)CS[C@H]12)c1csc(N)n1 [Cefepime, cefepime, reference compound]
MIC ([2]; comparator antibacterials): 4 µg/mL (≈ 8.32 µM)
MIC ([3]; comparator antibacterials): 2 µg/mL (≈ 4.16 µM)
MIC ([4]; comparator antibacterials): 2 µg/mL (≈ 4.16 µM)
MIC ([5]; comparator antibacterials): 8 µg/mL (≈ 16.6 µM)
MIC ([6]; comparator antibacterials): 8 µg/mL (≈ 16.6 µM)
MIC ([7]; comparator antibacterials): > 128 µg/mL
MIC ([8]; comparator antibacterials): 32 µg/mL (≈ 66.6 µM)
MIC ([9]; P. aer 12307, comparator antibacterials): 2 µg/mL (≈ 4.16 µM)
MIC ([9]; P. aer psa-6b, comparator antibacterials): 8 µg/mL (≈ 16.6 µM)
MIC ([10]; comparator antibacterials): 8 µg/mL (≈ 16.6 µM)
MIC (Alcaligenes xylosoxidans; comparator antibacterials): 8 µg/mL (≈ 16.6 µM)
MIC (Burkholderia cepacia; comparator antibacterials): 16 µg/mL (≈ 33.3 µM)
MIC (Burkholderia cepacia; Burkholderia cepacia, comparator antibacterials, read-out: MIC): 32 µg/mL (≈ 66.6 µM)
MIC (Enterobacter cloacae; comparator antibacterials): ≤ 0.13 µg/mL
MIC (Escherichia coli; E. coli 2788, comparator antibacterials): ≤ 0.13 µg/mL
MIC (Klebsiella pneumoniae; comparator antibacterials): 8 µg/mL (≈ 16.6 µM)
MIC (Klebsiella oxytoca; comparator antibacterials): ≤ 0.13 µg/mL
MIC (Proteus mirabilis; comparator antibacterials): ≤ 0.13 µg/mL
MIC (Serratia marcescens; comparator antibacterials): ≤ 0.13 µg/mL
MIC ([12]; comparator antibacterials): 2 µg/mL (≈ 4.16 µM)

From patent US7358359B2, “Antibacterial agents” (University of Washington, priority 2003, dated 2008)
